Reference: patent publication US20190105367A1, “ANTIMICROBIAL 4-OXOQUINOLIZINES” (Emergent Product Development Gaithersburg Inc., priority 2011, published 2019)
≈ marks a conversion by molar mass, not a printed value. Read-outs that look alike come from different tables or passages of the source.

Assays:
[1] = test system: A. baumannii NCTC 13301; assay: MIC without and with sub-inhibitory polymyxin B (Example 4); assay type: cell-based, Acinetobacter baumannii
[2] = test system: A. baumannii NCTC 13301; assay: Preliminary MBC without and with sub-inhibitory polymyxin B (Example 4); assay type: cell-based, Acinetobacter baumannii; settings: Acinetobacter baumannii, NCTC13301, read-out: MBC +[…] PB
Outline: (§1)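 Incubation 18-20 h, 37° C. MBC = lowest conc. with ~90% fewer colonies than positive control (single/no colonies).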

[3] = test system: A. baumannii A14; assay: as above; assay type: cell-based, Acinetobacter baumannii; settings: 2nd experiment
Outline: as §1

[4] = test system: A. baumannii A473; assay: as above; assay type: cell-based, Acinetobacter baumannii; settings: Acinetobacter baumannii, A473, A. baumannii A473, +0.06 μg/ml PB, 2nd experiment, read-out: MBC
Outline: as §1

[5] = test system: A. baumannii A390; assay: as above; assay type: cell-based, Acinetobacter baumannii; settings: Acinetobacter baumannii, A390, A. baumannii A390, +0.06 μg/ml PB, 2nd experiment, read-out: MBC
Outline: as §1

[6] = test system: A. baumannii A14; assay: MIC without and with sub-inhibitory polymyxin B (Example 4); assay type: cell-based, Acinetobacter baumannii; settings: 1st experiment
[7] = test system: A. baumannii A401; assay: as above; assay type: cell-based, Acinetobacter baumannii; settings: for MIC: Acinetobacter baumannii
[8] = test system: A. baumannii J2; assay: as above; assay type: cell-based, Acinetobacter baumannii; settings: for MIC without PB/MIC + PB: A. baumannii J2
[9] = test system: A. baumannii A329; assay: Preliminary MBC without and with sub-inhibitory polymyxin B (Example 4); assay type: cell-based, Acinetobacter baumannii; settings: Acinetobacter baumannii, A329, A. baumannii A329, +0.06 μg/ml PB, 2nd experiment, read-out: MBC
[10] = test system: strains of A. baumannii and one strain of Acinetobacter sp.; assay: MIC with sub-inhibitory concentrations (0.25x MIC) of polymyxin B, panel of Acinetobacter strains (Example 4); assay type: cell-based
[11] = test system: A. baumannii A387; assay: Preliminary MBC without and with sub-inhibitory polymyxin B (Example 4); assay type: cell-based, Acinetobacter baumannii; settings: Acinetobacter baumannii, A387, read-out: MBC +0.06 μg/ml PB, A. baumannii A387, +0.06 μg/ml polymyxin B, 1st experiment
[12] = test system: A. baumannii ATCC 19606; assay: as above; assay type: cell-based, Acinetobacter baumannii; settings: Acinetobacter baumannii
[13] = test system: A. baumannii A387; assay: MIC without and with sub-inhibitory polymyxin B (Example 4); assay type: cell-based, Acinetobacter baumannii
[14] = test system: A. baumannii A14; assay: Preliminary MBC without and with sub-inhibitory polymyxin B (Example 4); assay type: cell-based, Acinetobacter baumannii; settings: A. baumannii A14; +0.06 μg/ml polymyxin B; preliminary MBC; 1st experiment
[15] = test system: A. baumannii A472; assay: MIC without and with sub-inhibitory polymyxin B (Example 4); assay type: cell-based, Acinetobacter baumannii; settings: 1st experiment
[16] = test system: A. baumannii A401; assay: Preliminary MBC without and with sub-inhibitory polymyxin B (Example 4); assay type: cell-based, Acinetobacter baumannii; settings: Acinetobacter baumannii
[17] = test system: A. baumannii ATCC 19606; assay: MIC without and with sub-inhibitory polymyxin B (Example 4); assay type: cell-based, Acinetobacter baumannii; settings: for MIC without PB/MIC + PB: A. baumannii ATCC 19606; for MIC: Acinetobacter baumannii
[18] = test system: A. baumannii NCTC 13301; assay: as above; assay type: cell-based, Acinetobacter baumannii; settings: A. baumannii NCTC 13301; +[…] PB; 2nd experiment
[19] = test system: A. baumannii A473; assay: as above; assay type: cell-based, Acinetobacter baumannii; settings: +0.06 μg/ml PB, 2nd experiment
[20] = test system: A. baumannii A14; assay: as above; assay type: cell-based, Acinetobacter baumannii; settings: 2nd experiment
[21] = test system: Acinetobacter sp. (H064200250); assay: as above; assay type: cell-based; settings: for MIC: Acinetobacter
[22] = test system: A. baumannii A472; assay: Preliminary MBC without and with sub-inhibitory polymyxin B (Example 4); assay type: cell-based, Acinetobacter baumannii; settings: Acinetobacter baumannii, A472, read-out: MBC +[…] PB, A. baumannii A472; +[…] polymyxin B; preliminary MBC; 1st experiment
[23] = test system: A. baumannii A390; assay: MIC without and with sub-inhibitory polymyxin B (Example 4); assay type: cell-based, Acinetobacter baumannii; settings: +0.06 μg/ml PB, 2nd experiment
[24] = test system: A. baumannii A489; assay: as above; assay type: cell-based, Acinetobacter baumannii; settings: for MIC without PB/MIC + PB: A. baumannii A489; for MIC: Acinetobacter baumannii
[25] = A. baumannii A14, +0.06 μg/ml PB

In the case of `Cc1c(-c2ccc(CN)cc2)ccn2c(=O)c(C(=O)O)cc(C3CC3)c12` [Compound 5, 8-(4-aminomethyl-phenyl)-1-cyclopropyl-9-methyl-4-oxo-quinolizine-3-carboxylic acid], the “MIC without PB/MIC + PB” value ([1]; A. baumannii NCTC 13301, ratio, PB […], 1st experiment) was 16, the MIC ([1]; Acinetobacter baumannii, NCTC13301, read-out: MIC +[…] PB) was 1 µg/mL (≈ 2.87 µM) and the MBC [2] was 1 µg/mL (≈ 2.87 µM). The MBC [3, 25] was 4 µg/mL (≈ 11.5 µM), the MBC ([3]; Acinetobacter baumannii, A14, A. baumannii A14, without PB, read-out: MBC) was 16 µg/mL (≈ 45.9 µM) and the MBC [4] was 1 µg/mL (≈ 2.87 µM). For the same molecule, the MBC [5] was 2 µg/mL (≈ 5.74 µM), the “MIC +0.06 μg/ml PB” value ([6]; +0.06 μg/ml polymyxin B) was 4 µg/mL and the “MIC without PB/MIC + PB” value ([6]; ratio, PB 0.06 μg/ml) was 8. For the same molecule, the “MIC without PB/MIC + PB” value ([7]; A baumannii A 401, ratio, PB 0.06 μg/ml, 1st experiment) was 8, the MIC ([7]; A401, A baumannii A 401, +0.06 μg/ml PB, 2nd experiment, read-out: MIC) was 4 µg/mL (≈ 11.5 µM) and the MIC ([7]; A401, read-out: MIC +0.06 μg/ml PB, A baumannii A 401, +0.06 μg/ml polymyxin B, 1st experiment) was 2 µg/mL. The “MIC without PB/MIC + PB” value ([8]; +[…] PB, 2nd experiment) was 8, the “MIC without PB/MIC + PB” value ([8]; ratio, PB […], 1st experiment) was 16 and the MIC ([8]; Acinetobacter baumannii, J2, read-out: MIC +[…] PB, A. baumannii J2, +[…] polymyxin B, 1st experiment) was 0.5 µg/mL (≈ 1.44 µM). The MBC [9] was 8 µg/mL (≈ 23 µM), the “Range ratios MIC without PB/MIC with PB Oct. 1, 2008 n = 8” value ([10]; 1st experiment) was 8-16 and the “MIC range with PB (0.25x MIC) Oct. 1, 2008 n = 8” value ([10]; 1st experiment, […] polymyxin B, ATCC 19606, A329, A390 and A473 not taken) was 0.25 to 4 µg/mL. The “Range ratios MIC without PB/MIC with PB Oct. 14, 2008 n = 11” value ([10]; 2nd experiment) was 4-32, the “MIC range with PB (0.25x MIC) Oct. 14, 2008 n = 11” value ([10]; 2nd experiment, 0.06 μg/ml polymyxin B, all strains except the ATCC strain) was 0.25 to 8 µg/mL and the MBC [11] was 0.25 µg/mL. For the same molecule, the MBC ([12]; ATCC19606, A. baumannii ATCC 19606, +0.06 μg/ml PB, 2nd experiment, read-out: MBC) was 0.06 µg/mL (≈ 0.172 µM), the MBC ([12]; ATCC19606, read-out: MBC +0.06 μg/ml PB, A. baumannii ATCC 19606, +0.06 μg/ml polymyxin B, 1st experiment) was 0.06 µg/mL and the “MIC without PB/MIC + PB” value ([13]; A. baumannii A387, +0.06 μg/ml PB, 2nd experiment) was 4. For the same molecule, the “MIC +0.06 μg/ml PB” value ([13]; A. baumannii A387, +0.06 μg/ml polymyxin B, 1st experiment) was 0.25 µg/mL, the “MIC without PB/MIC + PB” value ([13]; A. baumannii A387, ratio, PB 0.06 μg/ml, 1st experiment) was 8 and the MIC ([13]; Acinetobacter baumannii, A387, A. baumannii A387, +0.06 μg/ml PB, 2nd experiment, read-out: MIC) was 1 µg/mL (≈ 2.87 µM). For the same molecule, the “MBC +0.06 μg/ml PB” value [14] was 8 µg/mL, the “MIC without PB/MIC + PB” value ([15]; A. baumannii A472, ratio, PB […]) was 8 and the MIC ([15]; Acinetobacter baumannii, A472, read-out: MIC +[…] PB, A. baumannii A472, +[…] polymyxin B) was 1 µg/mL (≈ 2.87 µM). For the same molecule, the MBC ([16]; A401, A baumannii A 401, +0.06 μg/ml PB, 2nd experiment, read-out: MBC) was 4 µg/mL (≈ 11.5 µM), the MBC ([16]; A401, read-out: MBC +0.06 μg/ml PB, A baumannii A 401, +0.06 μg/ml polymyxin B, 1st experiment) was 2 µg/mL and the “MIC without PB/MIC + PB” value ([17]; +0.06 μg/ml PB, 2nd experiment) was 8. The “MIC without PB/MIC + PB” value ([17]; ratio, PB 0.06 μg/ml, 1st experiment) was 4, the MIC ([17]; ATCC19606, A. baumannii ATCC 19606, +0.06 μg/ml PB, 2nd experiment, read-out: MIC) was 0.06 µg/mL (≈ 0.172 µM) and the MIC ([17]; ATCC19606, read-out: MIC +0.06 μg/ml PB, A. baumannii ATCC 19606, +0.06 μg/ml polymyxin B, 1st experiment) was 0.06 µg/mL. The “MIC without PB/MIC + PB” value [18] was 8, the “MIC without PB/MIC + PB” value ([19]; A. baumannii A473) was 8 and the MIC ([19]; Acinetobacter baumannii, A473, A. baumannii A473, read-out: MIC) was 1 µg/mL (≈ 2.87 µM). The MIC [20, 25] was 4 µg/mL (≈ 11.5 µM), the “MIC without PB/MIC + PB” value [20, 25] was 4 and the MIC ([20]; Acinetobacter baumannii, A14, A. baumannii A14, without PB, read-out: MIC) was 16 µg/mL (≈ 45.9 µM). The MIC [21] was 4 µg/mL (≈ 11.5 µM), the “MIC without PB/MIC + PB” value ([21]; Acinetobacter spp. H064200250 (OXA51), +[…] PB, 2nd experiment) was 4 and the “MIC without PB/MIC + PB” value ([21]; Acinetobacter spp. H064200250, ratio, PB […], 1st experiment) was 16. The MIC ([21]; read-out: MIC +[…] PB, Acinetobacter spp. H064200250, +[…] polymyxin B, 1st experiment) was 1 µg/mL (≈ 2.87 µM), the MBC [22] was 1 µg/mL (≈ 2.87 µM) and the “MIC without PB/MIC + PB” value ([23]; A. baumannii A390) was 4. For the same molecule, the MIC ([23]; Acinetobacter baumannii, A390, A. baumannii A390, read-out: MIC) was 2 µg/mL (≈ 5.74 µM), the “MIC without PB/MIC + PB” value ([24]; +[…] PB, 2nd experiment) was 16 and the “MIC without PB/MIC + PB” value ([24]; ratio, PB […], 1st experiment) was 8. For the same molecule, the MIC ([24]; A489, A. baumannii A489, +[…] PB, 2nd experiment, read-out: MIC) was 0.5 µg/mL (≈ 1.44 µM) and the MIC ([24]; A489, read-out: MIC +[…] PB, A. baumannii A489, +[…] polymyxin B, 1st experiment) was 0.5 µg/mL (≈ 1.44 µM).
